Assay [1] concerns lipid peroxidation in rat brain homogenates. Description: Lipid peroxidation assay (ascorbic acid induced, MDA/TBA readout). In kind it is biochemical. Particulars: concentration inhibiting lipid peroxidation by 50%; rat cortex preparation, 500-µM L-ascorbic acid, 37 °C for 30 min. Here is the method:
Lipid peroxidation in rat brain homogenates is a general procedure used to measure the antioxidant capacity of molecules in a biological environment (Das N.P. and Ratty A.K., Biochem. Med. Metab. Biol. 1987, 37, 256-264).
Rat cortex was homogenised in 20 vols. of ice cold 0.32-M sucrose and centrifuged at 1,000 g for 10 min. The pellet was discarded whilst the resulting supernatant was centrifuged at 15,000 g for 20 min at 4 °C to yield p2 pellets. The pellet was re-suspended in ice-cold 50.0-mM phosphate buffer and centrifuged at 30,000 g for 20 min at 4 °C. The pellet was re-suspended in 30 vols, of 50.0-mM phosphate buffer and used immediately in the assay.
Assays contained 500-µM L-ascorbic acid to induce lipid peroxidation, plus various concentrations of test compound, with the tissue preparation in a total volume of 500 µL. This was incubated at 37 °C for 30 min. Lipid peroxidation was measured by adding to the reaction mixture, 300 µL 40 % (w/v) trichloroacetic acid, 150 µL 5.0-M HCl and 300 µL 2 % (w/v) 2-thiobarbituric acid (TBA). Samples were then heated at 90 °C in a water bath for 15 min, and centrifuged at 15,000 g for 10 min. The pink colour of the supernatant was assessed spectrophotometrically at a wavelength of 532 nm. The amount of malondialdehyde (MDA) in the samples was calculated using a standard curve prepared with malondialdehyde tetrabutylammonium salt (Das, N.P. and Ratty, A.K. Biochem. Med. Metab. Biol. 1987, 37, 256-264).
The IC50 values show the concentration of test compound required to inhibit the lipid peroxidation by 50%.

In assay [2] the test system is cerebellar granule cell (CGC) cultures. Description: Iodoacetate (IAA) induced cell death, MTT-reductase readout. In kind it is cell-based. Particulars: Cell Toxicity, 30-µM IAA for 30 min plus 10-µM MK-801, then test compound, 24 hour incubation. Here is the method:
After 6-8 days in culture, cerebellar granule cell (CGC) cultures in 96-well plates (250,000 cells per well) were prepared for hypoglycaemia. Iodoacetate (IAA) was made up in a balanced salt solution (BSS) (NaCI, 154.0-mM; KCl, 5.6-mM; MgCl2, 1.0-mM; CaCl2, 2.5-mM; N-[2-hydroxyethyl]piperazine-N'-[2-ethanesulfonic acid] (HEPES), 10.0-mM; D-glucose, 5.6-mM; pH 7.4) and any neuroprotective agents were made up in pre-warmed tissue culture media and allowed to equilibrate in a controlled environment (5 % CO2, 95 % air). The assay was initiated by aspiration of the maintenance media, which was replaced by either BSS (control) or 30-µM IAA in BSS, both solutions containing 10-µM of the NMDA receptor antagonist MK-801. The exposure to IAA was for 30 min only at 37 °C, after which time the BSS was aspirated and replaced with fresh, pre-equilibriated maintenance media containing various concentrations of test compound. All conditions were performed at least in duplicate in each 96 well plate. The final volume for each well was always 200 µL. Following a 24 hour incubation, visual inspection of the cells was followed by quantification of neuronal cell death by measuring 3-[4,5-dimethylthiazol-2-yl]-2,5-diphenyltetrazolium bromide (MTT)-reductase activity as described previously (Malcolm et al., J. Neurochem. 1996, 66, 2350-2360).

The test system of assay [3] is oxidation of DCFH to DCF. Description: Measurement of intracellular oxidative stress (DCFH-DA fluorescence). In kind it is cell-based. Particulars: 0.5 h, concentration blocking oxidation of DCFH to DCF by 50%, 30.0-µM IAA, 30 minutes, read from Figure 1. Here is the method:
IAA-stimulated fluorescence values are given as a function of concentration of the test compound.
Intracellular oxidative stress was measured using the oxidant-sensitive fluorescent dye 2',7'-dichlorodihydrofluorescein diacetate (DCFH-DA) (Molecular Probes). The non-fluorescent DCFH-DA readily crosses cell membranes whereupon it is trapped within the cytoplasm by deacetylation to the non-membrane permeable form dichlorodihydrofluorescein (DCFH). Upon oxidation, DCFH yields the highly fluorescent product dichlorofluorescein (DCF). Briefly, growth medium was aspirated from cultures and replaced with 200 µl BSS (plus 10.0-µM MK-801) or BSS (plus 10.0-µM MK-801) containing 30.0-µM IAA alone or in combination with various concentrations of antioxidants. After incubation at 37 °C for 30 minutes, cultures were aspirated once more and 10.0-µM DCFH-DA (200 µL) added to all wells. After a further 20 minute incubation at 37 °C, fluorescence was measured in a Cytofluor II fluorescent plate reader (λex=485nm; λem=530nm). Background fluorescence values from wells treated with 2 % Triton X-100 were subtracted from both basal and stimulated fluorescence values and the effects of test compounds expressed as a percent inhibition of the IAA-stimulated fluorescence increase over basal.
The EC50 value gives the effective concentration of test compound required to block the oxidation of DCFH to DCF by 50%. […]

Where a name gives a salt, the structure may show the parent alone.

`Cc1c(C)c2c(c(C)c1O)CC(CC(=O)OCCn1ccc(=O)c(O)c1C)O2` (stereo not drawn) [Example 9, 2-(1,4-Dihydro-3-hydroxy-2-methyl-4-oxo-1-pyridinyl)ethyl 2,3-dihydro-5-hydroxy-4,6,7-trimethylbenzofuran-2-acetate]: the IC50 in assay [1] came out at 0.4 µM. In addition, the EC50 in assay [2] came to 1.6 µM.

Molecule “2-(1,4-Dihydro-3-hydroxy-2-methyl-4-oxo-1-pyridinyl)ethyl 3,4-dihydro-6-hydroxy-2,5,7,8-tetramethyl-2H-benzopyran-2-carboxylate [Example 3]” showed an IC50 in assay [1] of 1.5 µM. The EC50 in assay [2] is 1.8 µM.

With `Cc1c(O)c(=O)ccn1CCC(=O)NCCCc1cc(C(C)(C)C)c(O)c(C(C)(C)C)c1` [Example 1, 3-(1,4-Dihydro-3-hydroxy-2-methyl-4-oxo-1-pyridinyl)-N-(3-(3,5-di-tert-butyl-4-hydroxyphenyl)propyl)propanamide], in assay [1], the IC50 was determined as 0.2 µM. In addition, the 50% effective concentration (EC50) in assay [2] worked out at 0.3 µM.

In assay [1], `Cc1c(C)c2c(c(C)c1O)CCC(C)(COCCn1ccc(=O)c(O)c1C)O2` (stereo not drawn) [Example 6] registered an IC50 of 0.2 µM. The EC50 in assay [2] is about 3 µM.

Take `Cc1c(O)c(=O)ccn1CCNCc1cc(C(C)(C)C)c(O)c(C(C)(C)C)c1` [Example 2, 1-[2-(3,5-Di-tert-butyl-4-hydroxybenzylamino)ethyl]-3-hydroxy-2-methyl-4(1H)-pyridinone dihydrochloride]: the IC50 in assay [1] came to 0.2 µM. In addition, the EC50 in assay [2] came to 3.3 µM.

Regarding “N-(2-(1,4-Dihydro-3-hydroxy-2-methyl-4-oxo-1-pyridinyl)ethyl)-3,4-dihydro-6-hydroxy-2,5,7,8-tetramethyl-2H-benzopyran-2-carboxamide [Example 4]”, the IC50 in assay [1] worked out at 1 µM. Moreover, the half-maximal effective concentration (EC50) in assay [2] is 1.8 µM.

In the case of `Cc1c(C)c2c(c(C)c1O)CCC(C)(CNC(=O)CCn1ccc(=O)c(O)c1C)O2` (stereo not drawn) [Example 5, 3-(1,4-Dihydro-3-hydroxy-2-methyl-4-oxo-1-pyridinyl)-N-(3,4-dihydro-6-hydroxy-2,5,7,8-tetramethyl-2H-benzopyran-2-yl)methylpropanamide], in assay [1], the half-inhibitory concentration (IC50) turned out to be 0.8 µM. In addition, the EC50 in assay [2] stood at 2.6 µM.

Molecule `Cc1c(C)c2c(c(C)c1O)CCC(C)(CNCCCCn1ccc(=O)c(O)c1C)O2` (stereo not drawn) [Example 7, 1-[4-(3,4-Dihydro-6-hydroxy-2,5,7,8-tetramethyl-2H-benzopyran-2-yl)methylamino)butyl]-3-hydroxy-2-methyl-4(1H)-pyridinone dihydrochloride] registered an IC50 in assay [1] of 0.1 µM. Besides, in assay [2], the EC50 stood at 0.6 µM.

For the molecule `Cc1c(C)c2c(c(C)c1O)CC(CCOC(=O)CCn1ccc(=O)c(O)c1C)O2` (stereo not drawn) [Example 10, 2-(2,3-Dihydro-5-hydroxy-4,6,7-trimethylbenzofuran-2-yl)ethyl 3-(1,4-dihydro-3-hydroxy-2-methyl-4-oxo-1-pyridinyl)propanoate], the EC50 is 0.8 µM in assay [3] and about 5.3 µM in assay [2]. Moreover, half-maximal inhibition in assay [1] (IC50) was put at 0.2 µM.

Regarding `Cc1c(C)c2c(c(C)c1O)CC(CC(=O)NCCn1ccc(=O)c(O)c1C)O2` (stereo not drawn) [Example 8, N-(2-(1,4-Dihydro-3-hydroxy-2-methyl-4-oxo-1-pyridinyl)ethyl)-2,3-dihydro-5-hydroxy-4,6,7-trimethylbenzofuran-2-acetamide], inhibition in assay [1] was half-maximal at 0.5 µM (IC50). Moreover, the 50% effective concentration (EC50) in assay [2] turned out to be 3.8 µM.

A word on the IC50: it is the midpoint of a concentration-inhibition curve. Low values mean greater potency in that assay, high ones weaker potency in that assay. The EC50 is the concentration that produces a half-maximal response.

These data come from patent EP1006108A1, “3-Hydroxy-2(1H)-pyridinone or 3-hydroxy-4(1H)-pyridinone derivatives useful as reactive oxygen species (ROS) scavengers” (Cerebrus Pharmaceuticals Limited, priority 1998, dated 2000).
